The record followed here is PMC11714165, “Bone‐Targeted Fluoropeptide Nanoparticle Inhibits NF‐κB Signaling to Treat Osteosarcoma and Tumor‐Induced Bone Destruction” (Advanced Science, 2024).

One data set concerns mouse red blood cell. The data set is described as follows: Hemolysis of red blood cell suspension. Type of data set: cell-based. The conditions noted are these: 2% mouse red blood cell suspension, different concentrations, 37 °C, 2 h, 1% Triton X‐100 positive control, n = 3. How it is done:
Figure 3 Bioactivity of fluorous NBD nanoparticles. A) Schematic illustration of the NBD peptide inhibiting the NF‐κB pathway. B) WB analysis of p65, IκB, and phosphorylated p65 and IκB, respectively in BMM cells treated with RANKL for 2 h and then further incubated with different peptides (25 µM) for 24 h. C) Representative images of TRAP staining in BMM cells treated with PBS, NBD, NBD‐T, and NBD‐F respectively for osteoclast differentiation. The concentration of peptides was 25 µM. D) Quantification of the number of TRAP‐positive multinucleated osteoclasts (≥ 3 nuclei) based on the images in C). n = 5. Cell viability E) and LDH release F) of 143B cells exposed for 24 h to varying doses of NBD, NBD‐T, and NBD‐F, respectively. n = 3. G) Apoptosis analysis of 143B cells stained with FITC‐annexin V and propidium iodide (PI) for 24 h following treatment with NBD, NBD‐T, and NBD‐F, respectively. H) Images of 2% mouse red blood cell suspension incubated with different concentrations of NBD‐F or NBD‐T at 37 °C for 2 h. Triton X‐100 at 1% (Tx‐100) was used as a positive control. PBS was used as a negative control. […] Relative hemolysis was tested as [(As‐An)/(Ap‐An)] × 100%, where As, Ap, and An are the UV absorbances of the sample, positive control, and negative control, respectively (n = 3). *p < 0.05, **p < 0.01, ***p < 0.001, and ****p < 0.0001. […]

For data set [1], the system named is 143B cells. The data set is described as follows: LDH release assay. Particulars: varying doses, 24 h, n = 3. Format: cell-based, human. Here is the method: For the LDH assay, different concentrations of peptides were added to 143B cells as described above. The LDH released from the cells was measured by the manufacturer's protocol (Beyotime) after 24 h of incubation. Briefly, a new plate was used to transfer the solution of each well and treat it with lysis buffer at 37 °C for another 1 h. Each well was then incubated with the LDH working solution for 30 min. LDH activity was measured at 490 nm. Negative control cells were non‐treated, while positive control cells were treated with lysis buffer for 1 h directly. All samples were tested in triplicate.
Background: LDH in the medium is a marker of cell lysis.

The test system of data set [2] is 143B cells. The data set is described as follows: Intracellular peptide delivery, confocal microscopy and flow cytometry. Format: cell-based, human. How it is done: 10 µM of ^FINBD, ^FINBD‐F, or ^FINBD‐T was added to confocal dishes (diameter: 35 mm) when the 143B cells reached 90% confluence. After a 6 h incubation, the cells were rinsed with trypan blue and PBS, followed by imaging using a LSCM.
For flow cytometry analysis, the peptide ^FINBD, ^FINBD‐F, or ^FINBD‐T was added to 143B cells, following the aforementioned protocols. Subsequently, cells were digested using 0.25% trypsin, resuspended in PBS, and subjected to quantitative analysis of delivery efficiency using flow cytometry (CytoFLEX, BECKMAN, USA).
A control group consisted of ^FINBD‐F treated 143B cells in the absence of inhibitors (37 °C). Finally, LSCM was employed to observe internalized ^FINBD‐F in the treated cells.
(Flow cytometry measures light scatter and fluorescence of single cells or particles in a stream.)

Residues, ends and D or L forms follow the SMILES beside them. *: point of attachment. X1 = O=C(OCCC(F)(F)C(F)(F)C(F)(F)C(F)(F)C(F)(F)C(F)(F)F)c1ccc(C=NN*)cc1; FITC = O=C1OC2(c3ccc(O)cc3Oc3cc(O)ccc32)c2ccc(NC(=S)*)cc21; NHNH2 = NN*

Turning to `CC(C)C[C@H](NC(=O)[C@H](C)NC(=O)[C@@H](N)[C@@H](C)O)C(=O)N[C@@H](CC(=O)O)C(=O)N[C@@H](Cc1c[nH]c2ccccc12)C(=O)N[C@@H](CO)C(=O)N[C@@H](Cc1c[nH]c2ccccc12)C(=O)N[C@@H](CC(C)C)C(=O)N[C@@H](CCC(N)=O)C(=O)N[C@H](C(=O)N[C@@H](CCC(=O)O)C(=O)NN=Cc1ccc(C(=O)OCCC(F)(F)C(F)(F)C(F)(F)C(F)(F)C(F)(F)C(F)(F)F)cc1)[C@@H](C)O` [NBD-F] (H-TALDWSWLQTE-X1), the Relative hemolysis entry in the data set with mouse red blood cell is recorded as “relatively low hemolytic rate”. In addition, the LDH release entry with 143B cells [1] was “concentration‐dependent”.

As to “{FITC}-TALDWSWLQTE-NHNH2 [^FINBD-F, FITC‐labeled NBD peptide after fluorous tag modification]”, in the data set on 143B cells [2] (10 µM NBD, 6 h, confocal microscopy and flow cytometry, n = 3, compared with ^FINBD and ^FINBD‐T), the “Efficiency of intracellular delivery (fluorescence intensity)” value is “noticeably improved the efficiency of intracellular delivery”. Besides, the Internalization mechanism result in the data set on 143B cells [2] (1 h pretreatment with EIPA 100 µM, MβCD 10 mM, GEN 700 µM, CPZ 20 µM or 4 °C, then 6 h peptide) was “mediated through multiple endocytosis pathways”. For the same molecule, in the data set with 143B cells [2] (confocal, fluorescence dispersed throughout the cells after an hour of incubation), the “Cellular uptake and endosomal escape” value is “rapid and efficient”.
